Test results reported in PubChem BioAssay AID2060616 (Molecular Pharmacology Branch, DTP, NCI, 2025).
Where “and” joins values, the source holds several entries; their conditions need not be identical. Equal entries are not always repeated. Values belong to the compound of their own block, whether it stands above or below them.

Tested on: 377384-186-R-J1-PDC complex spheroid viability
Assay: Anticancer human tumor 377384-186-R-J1-PDC patient-derived pancreatic carcinoma cell line growth inhibition [CLK]
Conditions: for viability, T/C: stronger effect = lower value
How it was run: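 Patient-derived tumor cells grown as complex spheroids with HUVEC endothelial cells and mesenchymal stem cells, treated with drug combinations. Concentrations descend in half-log steps from near clinical Cmax, or from 10 microM if Cmax unknown.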

[1] = curve of first compound, second compound 0.0316 µM
[2] = curve of first compound, second compound 0.1 µM
[3] = curve of first compound, second compound 0.316 µM
[4] = curve of first compound, second compound 1 µM
[5] = curve of first compound, second compound 3.16 µM
[6] = curve of first compound, second compound 10 µM
[7] = second compound 0.0316 µM, first compound 0.0316 µM
[8] = second compound 0.0316 µM, first compound 0.1 µM
[9] = second compound 0.0316 µM, first compound 0.316 µM
[10] = second compound 0.0316 µM, first compound 1 µM
[11] = second compound 0.0316 µM, first compound 3.16 µM
[12] = second compound 0.0316 µM, first compound 10 µM
[13] = second compound 0.1 µM, first compound 0.0316 µM
[14] = second compound 0.1 µM, first compound 0.1 µM
[15] = second compound 0.1 µM, first compound 0.316 µM
[16] = second compound 0.1 µM, first compound 1 µM
[17] = second compound 0.1 µM, first compound 3.16 µM
[18] = second compound 0.1 µM, first compound 10 µM
[19] = second compound 0.316 µM, first compound 0.0316 µM
[20] = second compound 0.316 µM, first compound 0.1 µM
[21] = second compound 0.316 µM, first compound 0.316 µM
[22] = second compound 0.316 µM, first compound 1 µM
[23] = second compound 0.316 µM, first compound 3.16 µM
[24] = second compound 0.316 µM, first compound 10 µM
[25] = second compound 1 µM, first compound 0.0316 µM
[26] = second compound 1 µM, first compound 0.1 µM
[27] = second compound 1 µM, first compound 0.316 µM
[28] = second compound 1 µM, first compound 1 µM
[29] = second compound 1 µM, first compound 3.16 µM
[30] = second compound 1 µM, first compound 10 µM
[31] = second compound 3.16 µM, first compound 0.0316 µM
[32] = second compound 3.16 µM, first compound 0.1 µM
[33] = second compound 3.16 µM, first compound 0.316 µM
[34] = second compound 3.16 µM, first compound 1 µM
[35] = second compound 3.16 µM, first compound 3.16 µM
[36] = second compound 3.16 µM, first compound 10 µM
[37] = second compound 10 µM, first compound 0.0316 µM
[38] = second compound 10 µM, first compound 0.1 µM
[39] = second compound 10 µM, first compound 0.316 µM
[40] = second compound 10 µM, first compound 1 µM
[41] = second compound 10 µM, first compound 3.16 µM
[42] = second compound 10 µM, first compound 10 µM
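Further: spheroids exposed to agents for 7 days before reading.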
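Wherever viability, T/C is given: luminescence signal used as a stand-in for viable cells.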

IC50 [1]: < 31.6 nM
IC50 [2]: < 31.6 nM
IC50 [3]: < 31.6 nM
IC50 [4]: < 31.6 nM
IC50 [5]: < 31.6 nM
IC50 [6]: < 31.6 nM
Compound: C#Cc1c(F)ccc2cc(O)cc(-c3ncc4c(N5CC6CCC(C5)N6)nc(OCC56CCCN5CC(F)C6)nc4c3F)c12 (stereo not drawn) + CNC(=O)c1ccc(Nc2nc(OC3CCCC3)c3c(-c4ccc5nc(C)oc5c4)c[nH]c3n2)c(OC)c1
viability, T/C [7]: 23.6%
viability, T/C [8]: 11.7%
viability, T/C [9]: 5.37%
viability, T/C [10]: 4.27%
viability, T/C [11]: 2.38%
viability, T/C [12]: 1.98%
viability, T/C [13]: 22%
viability, T/C [14]: 8.53%
viability, T/C [15]: 5.17%
viability, T/C [16]: 2.73%
viability, T/C [17]: 2.7%
viability, T/C [18]: 2.19%
viability, T/C [19]: 7.28%
viability, T/C [20]: 4.75%
viability, T/C [21]: 3.08%
viability, T/C [22]: 2.69%
viability, T/C [23]: 2.74%
viability, T/C [24]: 2.17%
viability, T/C [25]: 6.44%
viability, T/C [26]: 3.72%
viability, T/C [27]: 2.21%
viability, T/C [28]: 1.64%
viability, T/C [29]: 1.66%
viability, T/C [30]: 1.12%
viability, T/C [31]: 4.56%
viability, T/C [32]: 3.31%
viability, T/C [33]: 2.47%
viability, T/C [34]: 2.25%
viability, T/C [35]: 1.64%
viability, T/C [36]: 1.59%
viability, T/C [37]: 4.62%
viability, T/C [38]: 2.7%
viability, T/C [39]: 2.29%
viability, T/C [40]: 1.95%
viability, T/C [41]: 1.6%
viability, T/C [42]: 2.24%

IC50 (compound alone, run of 08/01/2023): 130 nM [middle of 11 runs]
Compound: CNC(=O)c1ccc(Nc2nc(OC3CCCC3)c3c(-c4ccc5nc(C)oc5c4)c[nH]c3n2)c(OC)c1
viability, T/C (compound 0.0316 µM): 102% [middle of 12 runs]
viability, T/C (compound 0.1 µM): 57.2% [middle of 12 runs]
viability, T/C (compound 0.316 µM): 20.9% [middle of 12 runs]
viability, T/C (compound 1 µM): 20.4% [middle of 12 runs]
viability, T/C (compound 3.16 µM): 21% [middle of 12 runs]
viability, T/C (compound 10 µM): 21.6% [middle of 12 runs]

IC50 (curve of compound): 1670 nM and 1730 nM
Compound: C=C(F)C(=O)N1CCN(c2nc(OCC3CCCN3C)nc3c2CCN(c2cccc4cccc(Cl)c24)C3)CC1CC#N (stereo not drawn)
viability, T/C (compound 0.0316 µM): 88.4% and 94.1%
viability, T/C (compound 0.1 µM): 97.7% and 89.9%
viability, T/C (compound 0.316 µM): 86.1% and 91.8%
viability, T/C (compound 1 µM): 73.6% and 70.8%
viability, T/C (compound 3.16 µM): 21.3% and 26.5%
viability, T/C (compound 10 µM): 0.31% and 0.54%

Compound: C#Cc1c(F)ccc2cc(O)cc(-c3ncc4c(N5CC6CCC(C5)N6)nc(OCC56CCCN5CC(F)C6)nc4c3F)c12 (stereo not drawn) + CN1CCN(c2cc(C(=O)Nc3cc4cc(-c5cnn(C)c5)ccc4cn3)ccn2)CC1
IC50 [1]: < 31.6 nM
IC50 [2]: < 31.6 nM
IC50 [3]: < 31.6 nM
IC50 [4]: < 31.6 nM
IC50 [5]: < 31.6 nM
IC50 [6]: < 31.6 nM
viability, T/C [7]: 23.7%
viability, T/C [8]: 9.22%
viability, T/C [9]: 5.47%
viability, T/C [10]: 3.59%
viability, T/C [11]: 1.91%
viability, T/C [12]: 2.78%
viability, T/C [13]: 17.5%
viability, T/C [14]: 9.27%
viability, T/C [15]: 3.82%
viability, T/C [16]: 2.55%
viability, T/C [17]: 1.86%
viability, T/C [18]: 1.3%
viability, T/C [19]: 6.63%
viability, T/C [20]: 2.9%
viability, T/C [21]: 2.56%
viability, T/C [22]: 1.32%
viability, T/C [23]: 1.33%
viability, T/C [24]: 0.82%
viability, T/C [25]: 0.45%
viability, T/C [26]: 0.37%
viability, T/C [27]: 0.27%
viability, T/C [28]: 0.32%
viability, T/C [29]: 0.34%
viability, T/C [30]: 0.4%
viability, T/C [31]: 0.26%
viability, T/C [32]: 0.6%
viability, T/C [33]: 0.24%
viability, T/C [34]: 0.33%
viability, T/C [35]: 0.38%
viability, T/C [36]: 0.56%
viability, T/C [37]: 0.1%
viability, T/C [38]: 0.21%
viability, T/C [39]: 0.19%
viability, T/C [40]: 0.33%
viability, T/C [41]: 0.22%
viability, T/C [42]: 0.49%
